# Data taken from patent publication US20110257208A1, “COMPOUNDS USEFUL AS FAAH MODULATORS AND USES THEREOF” (priority 2008, published 2011).
# Target: T1, hFAAH (Homo sapiens, UniProt O00519)
# T1 construct: expressed in transfected cells; host or cells: HEK293-TRex (Invitrogen) stably transfected with hFAAH in the pcDNA5-Tet-off vector, or T84 human colon epithelial cells (endogenous hFAAH); used as a microsomal preparation
# T1 sequence (O00519 1-579): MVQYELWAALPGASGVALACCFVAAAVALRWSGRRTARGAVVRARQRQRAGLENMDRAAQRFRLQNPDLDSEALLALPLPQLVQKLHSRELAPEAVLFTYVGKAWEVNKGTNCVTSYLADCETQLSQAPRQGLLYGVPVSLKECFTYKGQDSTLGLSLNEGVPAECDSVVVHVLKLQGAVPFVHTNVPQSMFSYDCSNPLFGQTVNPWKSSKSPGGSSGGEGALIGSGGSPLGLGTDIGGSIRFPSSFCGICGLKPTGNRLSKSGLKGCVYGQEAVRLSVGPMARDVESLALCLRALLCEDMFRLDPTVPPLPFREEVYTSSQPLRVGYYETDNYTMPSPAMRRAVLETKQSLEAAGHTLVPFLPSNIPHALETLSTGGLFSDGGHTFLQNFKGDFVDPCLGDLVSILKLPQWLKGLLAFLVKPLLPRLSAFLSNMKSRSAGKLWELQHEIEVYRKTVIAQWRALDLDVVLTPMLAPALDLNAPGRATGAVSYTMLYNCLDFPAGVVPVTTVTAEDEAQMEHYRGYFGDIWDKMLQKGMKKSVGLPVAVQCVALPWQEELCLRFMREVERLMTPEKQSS
# Assay: Fluorimetric assay with hFAAH microsomes (enzymatic, fluorescence based)
# Assay type: biochemical
# Details: compound at 1 uM, AA-AMC substrate
# Method: Human cell line T84 (human colon epithelial cells), which expresses endogenous hFAAH, or HEK293-TRex cells (Invitrogen) stably transfected with hFAAH in the pcDNA5-Tet-off vector are cultured in medium containing DMEM, 10% FBS penicillin/streptomycin, glutamax, 200 μg/ml hygromycin and 0.5 μg/ml blasticidin. Cell collection is done 24 h after induction with doxycycline by first washing the cells with cold PBS and then incubating them with Versene before centrifugation. Cell pellets are then stored at −80° C. until needed. For homogenization, the cell pellets are thawed on ice […] and resuspended in homogenization buffer (50 mM HEPES (pH 7.4), 1 mM EDTA, 1 μM Pepstatin A, 100 μM Leupeptin, 0.1 mg/mL aprotinin). Cell suspensions are then homogenized on ice using the Polytron 1200 C at setting 6 for three 30-second intervals with 30-second rests. The suspension is centrifuged at 1000 g for 10 minutes at 4° C. and the supernatant is collected and further centrifuged at 24000 rpm for 30 minutes at 4° C. using an ultracentrifuge. Pellets are resuspended by adding in cold microsomal buffer (50 mM HEPES (pH 7.4) and 1 mM EDTA) and sheared through a 23-gauge needle five times, keeping the suspension on ice. Protein concentrations are determined using the BCA assay and aliquoted preparations are stored at −80° C. until needed.
# Compound potency against hFAAH is determined using an enzymatic assay with a fluorescence readout. Briefly, experiments were carried out in a 96-well plate format (Corning Costar, # 3370) with a total well volume of 160 μL with components added in the following order: assay buffer (50 mM HEPES (pH 7.4), 1 mM EDTA, 1.4 mg/mL BSA), compound solutions (7 different concentrations per compound in duplicate), microsomal enzyme preparation (10 μg per well) and substrate [AA-AMC (arachadonyl 7-amino 4-methyl coumarin amide), 2 μM]. After a brief shaking, a kinetic read of the plate is obtained using a Tecan Safire II in kinetic mode for 275 cycles with excitation and emission wavelengths of 355 and 460 nm, respectively. Raw data is then processed and analyzed using Assay Explorer and GraphPad Prism.
# The following compounds have been or can be prepared according to the methods of the invention. An enzymatic (fluorescence based) assay is performed as described above. In Table 1, activity of each compound is expressed as follows: • ++++ % Inhibition >75% • +++ % Inhibition >50% • ++ % Inhibition >25% • + % Inhibition <25%
row,SMILES,inhibition at 1 µM
1,"O=C(NC1CCCCC1)N1Cc2ncnc(Nc3cnc4ccccc4c3)c2C1 [Compound 47, 4-(Quinolin-3-ylamino)-5,7-dihydro-pyrrolo[3,4-d]pyrimidine-6-carboxylic acid cyclohexylamide]",< 25%
2,"CCC(C)N1Cc2ncnc(Nc3cnc4ccccc4c3)c2C1 (stereo not shown) [Compound 35, (6-sec-Butyl-6,7-dihydro-5H-pyrrolo[3,4-d]pyrimidin-4-yl)-quinolin-3-yl-amine]",< 25%
3,"Cc1c(CN2Cc3ncnc(Nc4cnc5ccccc5c4)c3C2)cnn1C [Compound 26, [6-(1,5-Dimethyl-1H-pyrazol-4-ylmethyl)-6,7-dihydro-5H-pyrrolo[3,4-d]pyrimidin-4-yl]-quinolin-3-yl-amine]",> 25%
4,"c1ccc2ncc(Nc3ncnc4c3CN(C3COC3)C4)cc2c1 [Compound 44, (6-Oxetan-3-yl-6,7-dihydro-5H-pyrrolo[3,4-d]pyrimidin-4-yl)-quinolin-3-yl-amine]",< 25%
5,"Cc1ncc(CN2Cc3ncnc(Nc4cnc5ccccc5c4)c3C2)s1 [Compound 69, [6-(2-Methyl-thiazol-5-ylmethyl)-6,7-dihydro-5H-pyrrolo[3,4-d]pyrimidin-4-yl]-quinolin-3-yl-amine]",> 50%
6,"c1ccc2ncc(Nc3ncnc4c3CN(Cc3ccncc3)C4)cc2c1 [Compound 94, (6-Pyridin-4-ylmethyl-6,7-dihydro-5H-pyrrolo[3,4-d]pyrimidin-4-yl)-quinolin-3-yl-amine]",> 75%
7,"FC(F)(F)CN1Cc2ncnc(Nc3cnc4ccccc4c3)c2C1 [Compound 30, Quinolin-3-yl-[6-(2,2,2-trifluoro-ethyl)-6,7-dihydro-5H-pyrrolo[3,4-d]pyrimidin-4-yl]-amine]",< 25%
8,"Cc1ncccc1CN1Cc2ncnc(Nc3cnc4ccccc4c3)c2C1 [Compound 17, [6-(2-Methyl-pyridin-3-ylmethyl)-6,7-dihydro-5H-pyrrolo[3,4-d]pyrimidin-4-yl]-quinolin-3-yl-amine]",> 75%
9,"O=C(CN1CCCC1)N1Cc2ncnc(Nc3cnc4ccccc4c3)c2C1 [Compound 54, 2-Pyrrolidin-1-yl-1-[4-(quinolin-3-ylamino)-5,7-dihydro-pyrrolo[3,4-d]pyrimidin-6-yl]-ethanone]",< 25%
10,"Cc1nc(C)c(C(=O)N2Cc3ncnc(Nc4cnc5ccccc5c4)c3C2)s1 [Compound 49, (2,4-Dimethyl-thiazol-5-yl)-[4-(quinolin-3-ylamino)-5,7-dihydro-pyrrolo[3,4-d]pyrimidin-6-yl]-methanone]",> 50%
11,"CCCCN1Cc2ncnc(Nc3cnc4ccccc4c3)c2C1 [Compound 6, (6-Butyl-6,7-dihydro-5H-pyrrolo[3,4-d]pyrimidin-4-yl)-quinolin-3-yl-amine]",> 25%
12,"Cc1ccsc1S(=O)(=O)N1Cc2ncnc(Nc3cnc4ccccc4c3)c2C1 [Compound 56, [6-(3-Methyl-thiophene-2-sulfonyl)-6,7-dihydro-5H-pyrrolo[3,4-d]pyrimidin-4-yl]-quinolin-3-yl-amine]",> 25%
13,"CC(CC(C)(C)C)N1Cc2ncnc(Nc3cnc4ccccc4c3)c2C1 (stereo not shown) [Compound 39, Quinolin-3-yl-[6-(1,3,3-trimethyl-butyl)-6,7-dihydro-5H-pyrrolo[3,4-d]pyrimidin-4-yl]-amine]",< 25%
14,"O=S(=O)(c1ccc(F)cc1F)N1Cc2ncnc(Nc3cnc4ccccc4c3)c2C1 [Compound 58, [6-(2,4-Difluoro-benzenesulfonyl)-6,7-dihydro-5H-pyrrolo[3,4-d]pyrimidin-4-yl]-quinolin-3-yl-amine]",> 25%
15,"c1ccc2ncc(Nc3ncnc4c3CN(C3CCCCC3)C4)cc2c1 [Compound 23, (6-Cyclohexyl-6,7-dihydro-5H-pyrrolo[3,4-d]pyrimidin-4-yl)-quinolin-3-yl-amine]",> 25%
16,"CC(C)(C)CCN1Cc2ncnc(Nc3cnc4ccccc4c3)c2C1 [Compound 15, [6-(3,3-Dimethyl-butyl)-6,7-dihydro-5H-pyrrolo[3,4-d]pyrimidin-4-yl]-quinolin-3-yl-amine]",> 25%
